From US20070128217A1 (priority 2003, published 2007)

Tests used:
[1] = test system: antibodies in sera from SARS patients (sera 1a, 1b, 2, 6, 37, 62, London, SARS-yellow, SARS-green); format: binding, human; parameters: Binding of serum 6 to linear peptides of protein X1 of SARS-CoV Urbani / Binding of serum 37 to linear peptides of protein X1 of SARS-CoV Urbani / Binding of serum 6 to looped/cyclic peptide (PEPSCAN-ELISA) / Binding of serum 37 to looped/cyclic peptide (PEPSCAN-ELISA) / Binding of serum 37 to looped/cyclic peptides of protein X1 of SARS-CoV Urbani / Binding of serum 6 to linear peptides of protein X2 / Binding of serum 37 to linear peptides of protein X2 / Binding of serum 37 to looped/cyclic peptides of protein X2 of SARS-CoV Urbani / Binding of serum 6 to linear peptides of protein M of SARS-CoV Urbani / Binding of serum 37 to linear peptides of protein M of SARS-CoV Urbani / Binding of serum 6 to looped/cyclic peptides of protein M of SARS-CoV Urbani / Binding of serum 37 to looped/cyclic peptides of protein M of SARS-CoV Urbani / Binding of serum 6 to linear peptides of protein X3 of SARS-CoV Urbani / Binding of serum 37 to linear peptides of protein X3 of SARS-CoV Urbani / Binding of serum 37 to looped/cyclic peptides of protein X3 of SARS-CoV Urbani / Binding of serum 6 to linear peptides of protein X4 of SARS-CoV Urbani / Binding of serum 37 to linear peptides of protein X4 of SARS-CoV Urbani / Binding of serum 37 to looped/cyclic peptides of protein X4 of SARS-CoV Urbani / Binding of serum 6 to linear peptides of protein X5 of SARS-CoV Urbani / Binding of serum 37 to linear peptides of protein X5 of SARS-CoV Urbani / Binding of serum 37 to looped/cyclic peptides of protein X5 of SARS-CoV Urbani / Binding of serum 6 to linear peptides of protein N of SARS-CoV Urbani / Binding of serum 37 to linear peptides of protein N of SARS-CoV Urbani / Binding of serum 6 to linear peptide (PEPSCAN-ELISA) / Binding of serum 1a to looped/cyclic peptides of protein N of SARS-CoV Urbani / Binding of serum 1b to looped/cyclic peptides of protein N of SARS-CoV Urbani / Binding of serum 2 to looped/cyclic peptides of protein N of SARS-CoV Urbani / Binding of serum 6 to looped/cyclic peptides of protein N of SARS-CoV Urbani / Binding of serum 37 to looped/cyclic peptides of protein N of SARS-CoV Urbani / Binding of serum 62 to looped/cyclic peptides of protein N of SARS-CoV Urbani / Binding of serum London to looped/cyclic peptides of protein N of SARS-CoV Urbani / Binding of serum SARS-green to looped/cyclic peptides of protein N of SARS-CoV Urbani: unit not given here
[2] = test system: rabbit serum obtained by immunizing a rabbit with the SARS-CoV strain Frankfurt 1; format: binding; parameters: Binding of a rabbit serum to linear peptides / Binding of a rabbit serum to looped peptides / Rabbit serum linear peptides / Rabbit serum looped peptides / Binding of a rabbit serum to linear peptides of protein N of SARS-CoV Urbani (Rabbit serum linear peptides) / Binding of a rabbit serum to looped/cyclic peptides of protein N of SARS-CoV Urbani (Rabbit serum looped peptides): unit not given here
[3] = test system: control sera (pooled serum of ten healthy LUMC hospital workers; commercial negative donor pooled serum from the Dutch bloodbank); format: binding, human; parameters: Binding of Control serum LUMC to linear peptides / Binding of Control serum Blood-bank to linear peptides / Binding of Control serum LUMC to looped peptides / Binding of Control Serum Blood-Bank to Looped peptides / Binding of Control serum LUMC to linear peptides of the protein M of SARS-CoV Urbani / Binding of Control serum Blood-bank to linear peptides of the protein M of SARS-CoV Urbani / Binding of Control serum LUMC to looped peptides of the protein M of SARS-CoV Urbani / Binding of Control Serum Blood-Bank to Looped peptides of the protein M of SARS-CoV Urbani: unit not given here

| Sequence | Binding of Control Serum Blood-Bank to Looped peptides [3] | Binding of Control serum Blood-bank to linear peptides [3] | Binding of Control serum LUMC to linear peptides [3] | Binding of Control serum LUMC to looped peptides [3] | Binding of serum 1a to linear peptides of protein X5 of SARS-CoV Urbani [1] | Binding of serum 1a to looped/cyclic peptides of protein X5 of SARS-CoV Urbani [1] | Binding of serum 1b to linear peptides of protein X5 of SARS-CoV Urbani [1] | Binding of serum 1b to looped/cyclic peptides of protein X5 of SARS-CoV Urbani [1] | Binding of serum 2 to linear peptides of protein X5 of SARS-CoV Urbani [1] | Binding of serum 2 to looped/cyclic peptides of protein X5 of SARS-CoV Urbani [1] | Binding of serum 6 to linear peptides of protein X5 of SARS-CoV Urbani [1] | Binding of serum 6 to looped/cyclic peptides of protein X5 of SARS-CoV Urbani [1] | Binding of serum 37 to linear peptides of protein X5 of SARS-CoV Urbani [1] | Binding of serum 37 to looped/cyclic peptides of protein X5 of SARS-CoV Urbani [1] | Binding of serum 62 to linear peptides of protein X5 of SARS-CoV Urbani [1] | Binding of serum 62 to looped/cyclic peptides of protein X5 of SARS-CoV Urbani [1] | Binding of serum London to linear peptides of protein X5 of SARS-CoV Urbani [1] | Binding of serum London to looped/cyclic peptides of protein X5 of SARS-CoV Urbani [1] | Rabbit serum linear peptides [2] | Rabbit serum looped peptides [2] | other results |
| --- | --- | --- | --- | --- | --- | --- | --- | --- | --- | --- | --- | --- | --- | --- | --- | --- | --- | --- | --- | --- | --- |
| TALQELLIQQWIQFM | 0.7 | 0.7 | 0.4 | 0.7 | – | – | – | – | – | – | – | – | – | – | – | – | – | – | – | – | Binding of serum 1a to linear peptides of protein X2 [1]: 0.8; Binding of serum 1a to looped/cyclic peptides of protein X2 of SARS-CoV Urbani [1]: 0.7; Binding of serum 1b to linear peptides of protein X2 [1]: 0.6; Binding of serum 1b to looped/cyclic peptides of protein X2 of SARS-CoV Urbani [1]: 0.5; Binding of serum 2 to linear peptides of protein X2 [1]: 0.3; Binding of serum 2 to looped/cyclic peptides of protein X2 of SARS-CoV Urbani [1]: 0.4; Binding of serum 6 to linear peptides of protein X2 [1]: 0.2; Binding of serum 6 to looped/cyclic peptides of protein X2 of SARS-CoV Urbani [1]: 0.3; Binding of serum 37 to linear peptides of protein X2 [1]: 0.5; Binding of serum 37 to looped/cyclic peptides of protein X2 of SARS-CoV Urbani [1]: 0.5; Binding of serum 62 to linear peptides of protein X2 [1]: 0.5; Binding of serum 62 to looped/cyclic peptides of protein X2 of SARS-CoV Urbani [1]: 0.7; Binding of serum London to linear peptides of protein X2 [1]: 0.4; Binding of serum London to looped/cyclic peptides of protein X2 of SARS-CoV Urbani [1]: 0.2; Binding of serum SARS-green to linear peptides of protein X2 [1]: 0.5; Binding of serum SARS-green to looped/cyclic peptides of protein X2 of SARS-CoV Urbani [1]: 0.5; Binding of serum SARS-yellow to linear peptides of protein X2 [1]: 0.4; Binding of serum SARS-yellow to looped/cyclic peptides of protein X2 of SARS-CoV Urbani [1]: 0.5; Binding of a rabbit serum to linear peptides [2]: 0.4; Binding of a rabbit serum to looped peptides [2]: 0.4 |
| TAWLCALGKVLPFHR | 0.4 | 0.7 | 0.4 | 0.6 | 0.7 | 0.4 | 0.5 | 0.3 | 0.6 | 0.6 | 0.5 | 0.9 | 0.7 | 0.4 | 0.7 | 0.7 | 0.6 | 1.3 | 0.7 | 0.8 | Binding of serum SARS-green to linear peptides of protein X5 of SARS-CoV Urbani [1]: 0.7; Binding of serum SARS-green to looped/cyclic peptides of protein X5 of SARS-CoV Urbani [1]: 0.2; Binding of serum SARS-yellow to linear peptides of protein X5 of SARS-CoV Urbani [1]: 0.3; Binding of serum SARS-yellow to looped/cyclic peptides of protein X5 of SARS-CoV Urbani [1]: 0.8 |
| TCTPNVTINCQDPAG | 0.4 | 0.7 | 0.5 | 0.2 | 0.8 | 0.2 | 0.6 | 0.0 | 0.6 | 0.1 | 0.8 | 0.1 | 0.7 | 0.1 | 0.8 | 0.1 | 0.8 | 0.1 | 0.5 | 0.0 | Binding of serum SARS-green to linear peptides of protein X5 of SARS-CoV Urbani [1]: 0.8; Binding of serum SARS-green to looped/cyclic peptides of protein X5 of SARS-CoV Urbani [1]: 0.2; Binding of serum SARS-yellow to linear peptides of protein X5 of SARS-CoV Urbani [1]: 0.2; Binding of serum SARS-yellow to looped/cyclic peptides of protein X5 of SARS-CoV Urbani [1]: 0.0 |
| TCTSTHFAFACADGT | 0.7 | 0.8 | 0.9 | 0.8 | – | – | – | – | – | – | – | – | – | – | – | – | – | – | 0.5 | 0.7 | Binding of serum 1a to linear peptides of protein X4 of SARS-CoV Urbani [1]: 0.8; Binding of serum 1a to looped/cyclic peptides of protein X4 of SARS-CoV Urbani [1]: 0.8; Binding of serum 1b to linear peptides of protein X4 of SARS-CoV Urbani [1]: 0.7; Binding of serum 1b to looped/cyclic peptides of protein X4 of SARS-CoV Urbani [1]: 0.6; Binding of serum 2 to linear peptides of protein X4 of SARS-CoV Urbani [1]: 0.5; Binding of serum 2 to looped/cyclic peptides of protein X4 of SARS-CoV Urbani [1]: 0.8; Binding of serum 6 to linear peptides of protein X4 of SARS-CoV Urbani [1]: 0.7; Binding of serum 6 to looped/cyclic peptides of protein X4 of SARS-CoV Urbani [1]: 0.6; Binding of serum 37 to linear peptides of protein X4 of SARS-CoV Urbani [1]: 0.7; Binding of serum 37 to looped/cyclic peptides of protein X4 of SARS-CoV Urbani [1]: 0.7; Binding of serum 62 to linear peptides of protein X4 of SARS-CoV Urbani [1]: 0.9; Binding of serum 62 to looped/cyclic peptides of protein X4 of SARS-CoV Urbani [1]: 0.8; Binding of serum London to linear peptides of protein X4 of SARS-CoV Urbani [1]: 0.8; Binding of serum London to looped/cyclic peptides of protein X4 of SARS-CoV Urbani [1]: 0.3; Binding of serum SARS-green to linear peptides of protein X4 of SARS-CoV Urbani [1]: 0.6; Binding of serum SARS-green to looped/cyclic peptides of protein X4 of SARS-CoV Urbani [1]: 0.5; Binding of serum SARS-yellow to linear peptides of protein X4 of SARS-CoV Urbani [1]: 0.6; Binding of serum SARS-yellow to looped/cyclic peptides of protein X4 of SARS-CoV Urbani [1]: 0.8 |
